US20260199284A1, “SPECIFIC VASH COMPOUNDS (SVC) INHIBITORS FOR HEART DISEASES” (MT ACT, priority 2023, published 2026)
“Also recorded” adds a separate entry of the source.

Experiments:
[1] = test system: human adult cardiomyocytes; test: mRNA expression of detyrosination-tyrosination cycle genes in human adult cardiomyocytes; format: cell-based; conditions: vs vehicle
Experimental: FIG. 34: human adult cardiomyocytes are treated with vehicle or SVC-01 and collected for analysis of mRNA expression of genes involved in the detyrosination-tyrosination cycle.
Specificity of SVC-01 was assayed using both human VASH1 and VASH2 recombinant enzymes. […] Finally, to ensure that regulation of other genes involved in the detyrosination-tyrosination cycle is not affected, we analysed gene expression of all relevant and associated genes following treatment with SVC-02 in adult human cardiomyocytes. We found no alteration of VASH1, VASH2, MATCAP, TTL or SVBP gene expression between vehicle control and SVC-02 treated cells (FIG. 34).

[2] = test system: tubulin detyrosination in human cells; test: Immunofluorescent (high content screening) detection of tubulin detyrosination in human cells; format: cell-based
Experimental: FIG. 4: Immuofluorescent staining of wild type human cells and VASH double knock-outs.
FIG. 5: Immunofluorescent method to detect levels of tubulin detyrosination in human cells. Dose dependent reduction of tubulin detyrosination in human cells is observed after 2 hours treatment with all SVCs. In cellulo IC50 measure for SVC_03=10 nM.
FIG. 30: Immunofluorescent method to detect levels of tubulin detyrosination in human cells. Dose dependent reduction of tubulin detyrosination in human cells is observed after 2 hours treatment with all SVCs.
Since to date no small molecule has been designed to inhibit the enzyme VASH that is responsible for tubulin detyrosination, we engineered various compounds based on the natural substrate of the enzyme. We undertook an extensive analysis of the human proteome and sought to identify human proteins that encoded a -EEY sequence at the very C-terminal. Only 3 proteins matched the criteria including alpha-tubulin. Therefore, we developed 5 compounds that all share a tyrosine in the structure that is essential for the specificity (FIG. 2). […] Using computer-aided drug discovery and iterative cycles of medicinal chemistry work-up followed by ELISA (in vitro) and HCS (in cellulo) testing, we gathered a SAR database containing new chemical entities. The potency and selectivity of these compound is considered within pharmaceutical standards for further development. […] Next, using a human cell-line we assayed the activity of the compound SVC_01 in a cellular system that further gives indication on penetration and cellular efficacy. Following 2 hours exposure of the human cells to the SVC_01 compound, we fixed and analysed by specific immunofluorescence the labelling of detyrosinated tubulin but also that of another posttranslational modification termed acetylation (FIG. 4). […] Although specific, SVC_01 was used at micromolar concentration to obtain full inhibition. With the objective to improve cellular IC50 of our SVCs, we designed compounds that have better cell penetration specifications.

[3] = test system: primary cardiomyocytes isolated from healthy Sprague Dawley rats; test: Unloaded shortening contractility of healthy isolated cardiomyocytes; format: cell-based; conditions: healthy rat cardiomyocytes
Experimental: FIG. 13: Dose-dependent modest improvement in contraction and relaxation kinetics during unloaded shortening upon VASH inhibition in primary cardiomyocytes isolated from healthy Sprague Dawley rats. A) Resting sarcomere length, B) fractional shortening, C) contraction time and D) relaxation time in healthy isolated rat cardiomyocytes. n=50-60 myocytes per group from N=3 Sprague Dawley rats. One-way ANOVA.
Contractility was measured in a custom-fabricated cell chamber (IonOptix) mounted on an LSM Zeiss 880 inverted confocal microscope using either a 40 or 63× oil 1.4 numerical aperture objective and transmitted light camera (IonOptix MyoCam-S). Experiments were conducted at room temperature and field stimulation was provided at 1.0 Hz with a cell stimulator (MyoPacer, IonOptix). After 10-30 seconds of pacing to achieve steady state, five traces were recorded and analyzed. Sarcomere length was measured optically by Fourier transform analysis (IonWizard, IonOptix).

[4] = biological target: recombinant human VASH1 (hVASH1) and SVBP complex (Homo sapiens, UniProt Q7L8A9); test: In vitro detyrosination assay (ELISA-based) with recombinant human VASH1/SVBP; format: biochemical; conditions: for inhibition of detyrosinase activity of recombinant human VASH1: recombinant enzyme, dose-response
Chain of recombinant human VASH1 (hVASH1) and SVBP complex (Q7L8A9 whole entry): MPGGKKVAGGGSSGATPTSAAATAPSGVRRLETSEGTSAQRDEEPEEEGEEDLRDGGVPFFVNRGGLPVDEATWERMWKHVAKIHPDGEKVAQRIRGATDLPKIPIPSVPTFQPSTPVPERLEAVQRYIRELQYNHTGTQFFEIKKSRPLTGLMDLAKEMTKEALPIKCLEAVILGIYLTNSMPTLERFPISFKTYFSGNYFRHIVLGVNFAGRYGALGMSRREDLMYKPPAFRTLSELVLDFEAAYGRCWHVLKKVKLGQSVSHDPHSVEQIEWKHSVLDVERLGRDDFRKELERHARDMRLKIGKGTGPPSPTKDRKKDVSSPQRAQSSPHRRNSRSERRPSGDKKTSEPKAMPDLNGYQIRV
Chain of recombinant human VASH1 (hVASH1) and SVBP complex (Q8N300 whole entry partner): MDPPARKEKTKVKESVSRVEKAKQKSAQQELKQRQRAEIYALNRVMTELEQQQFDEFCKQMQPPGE
Experimental: FIG. 3: In vitro detyrosination assays using recombinant human VASH1 (hVASH1) and SVBP complex. ELISA-based method to measure detyrosinase activity. Dose-response allows for accurate determination of the inhibition of the compounds on the target.
We undertook an extensive analysis of the human proteome and sought to identify human proteins that encoded a -EEY sequence at the very C-terminal. […] Following 2 hours exposure of the human cells to the SVC_01 compound, we fixed and analysed by specific immunofluorescence the labelling of detyrosinated tubulin but also that of another posttranslational modification termed acetylation (FIG. 4).

[5] = test system: cardiomyocytes isolated from failing human hearts; test: Human myocyte contractility; format: cell-based
Experimental: Once excised, hearts were transported from the operating room to the laboratory in cold cardioplegia. The myocyte isolation was performed as previously described. An apical wedge was dissected from left ventricular free wall and a catheter was placed into the left anterior descending artery. The cannula was flushed with cold saline to evaluate perfusion of the wedge and tie any major vessels. The myocardium was then perfused with warm non-recirculating Krebs-Henseleit buffer (KHB) solution (12.5 mM glucose, 5.4 mM KCl, 1 mM lactic acid, 1.2 mM MgSO4, 130 mM NaCl, 1.2 mM NaH2PO4, 25 mM NaHCO3, 2 mM Na pyruvate, 20 mM BDM and 10 mM taurine, pH 7.4) for 10 minutes. Then, the myocardium was perfused with recirculated KHB and type II collagenase (294 units/mL) (Worthington Biochemical Corp., Lakewood, NJ, USA) for 5 minutes before calcium was slowly re-introduced to reach a final concentration of 1 mM. The collagenase and calcium supplemented KHB were recirculated for 25-30 minutes depending on the how the myocardium digested. The tissue was then removed from the cannula, rinsed in KHB with 1% bovine serum albumin (BSA) to stop the digestion, and then minced. The cell suspension was then filtered using 280-uM nylon mesh, centrifuged (25×g for 2 min), and resuspended in normal Tyrode's solution. Cells were treated with VASH inhibitor (VASHi) (1 mM) or vehicle (DMSO) before being placed in an incubator for 4 hours.
Contractility was assessed as previously described. After the 4-hour incubation with either VASHi or vehicle was complete, cardiomyocytes were transferred to 35 mm glass-bottom dishes. Contractility data was collected at 37 C. Cardiomyocytes were paced at 0.5 Hz using a myopacer (IonOptix MYP100) with custom fabricated carbon electrodes lowered into the glass bottom dish. Cells were paced for 10-15 seconds to reach steady state contractions and then data was recorded using high-speed video imaging with a Nikon PU-2000 inverted microscope with a 40× objective (IonWizard, IonOptix). A minimum of 5 contractions were recorded for Each myocyte and analyzed offline.
Cardiomyocytes were isolated from failing (N=4) and non-failing (N=3) human hearts, then treated with vehicle or VASHi (SVC-02) to evaluate bioactivity of the small molecule compound in primary human cardiomyocytes. Patient demographics are detailed in a table (FIG. 26). Compiled traces from all non-failing and failing patients are shown (FIG. 27).

[6] = 2 hours exposure, immunofluorescence

SMILES	expression of VASH1, VASH2, MATCAP, TTL or SVBP genes [1]	level of acetylated tubulin in human cells [2, 6]	level of tubulin detyrosination in human cells [2, 6]	contraction and relaxation times [3]	better inhibition compared to Epo-Y [4]	inhibition of detyrosinase activity of recombinant human VASH1 [4]	contraction velocity [5]	fractional shortening [5]	resting sarcomere length [5]	time to 50% relaxation / relaxation ([5]; 4 hours incubation)	IC50 on human cells ([2]; human cells)
O=C(O)CCC[C@H](NC(=O)[C@H]1O[C@@H]1C(=O)C[C@@H](Cc1ccc(OCc2ccccc2)cc1)C(=O)O)C(=O)NCCc1ccccc1 [SVC_01]	did not alter expression	remain unaffected; also recorded: without affecting the level of acetylation	background signal comparable to that observed in VASH 2KO cells; also recorded: completely reduced the level of tubulin detyrosination	dose-dependent and statistically significant improvements	about 100 ×	efficiently inhibited; also recorded: efficient in inhibiting	–	–	–	–	–
CCOC(=O)[C@H](Cc1ccc(OCC)cc1)NC(=O)[C@H]1O[C@@H]1C(=O)N[C@@H](Cc1ccc(OCC)cc1)C(=O)OCC [SVC_02]	no alteration	–	–	–	–	inactive in its prodrug form; also recorded: inactive toward the therapeutic target	did not significantly change	did not significantly change	did not significantly change	improved; also recorded: shortened the time to 50% relaxation	low nanomolar
